What was measured:
Test in all cases: Viral sensitivity, filter disc method
Assay type in all cases: cell-based
Rhinovirus Type 25 = details: strain 5426CV26; about 50 mcg per disc, HeLa
Description: (§1) In the test for viral sensitivity, by the filter disc method, 5 mg. of 1-(4-phenyl-2-thiazolyl)-3-phenylguanidine was dissolved in 1-2 drops of dimethylsulfoxide and 2.5 ml. of saline. Filter paper discs, when saturated with the solution, absorbed about 50 mcg. of the compound.
(§2) Sensitivity tests were performed by a modification of the method of Herrmann, et al., Proc. Soc. Exp. Biol. & Med., 103, 625 (1960). HeLa monolayers in 150 mm plastic dishes were infected with 1.0 ml. of rhinovirus suspension known to produce destruction of 80-90% of the cells in 4 to 5 days. Following viral adsorption, the cells were overlayed with 30 ml. of Eagle's minimum essential medium containing Noble agar at 0.5%, bovine fetal serum at 2.0%, diethylaminoethyl dextran at 100 mcg/ml. and magnesium chloride at 3 millimoles. Filter discs (1/4 inch Carl Schleicher and Schuell Co., No. 740E), containing about 50 mcg. of 1-(4-phenyl-2-thiazolyl)-3-phenylguanidine, were placed on the solidified surface and the culture plates incubated at 33° C. After 4 to 5 days, the overlay medium was decanted and the cells stained with 0.1% crystal violet in 20% ethanol. A zone of 10 mm or more in which at least two-thirds of the cells were protected from viral cytopathic effects, indicates antiviral activity. The following Table III lists 35 rhinovirus serotypes which were inhibited by this compound.

Rhinovirus Type 21 = details: strain 47CV21; about 50 mcg per disc, HeLa
Description: as §1, §2

Rhinovirus Type 52 = details: strain 515-CV34; about 50 mcg per disc, HeLa
Description: as §1, §2

Rhinovirus Type 19 = details: strain 6072CV18; about 50 mcg per disc, HeLa
Description: as §1, §2

Rhinovirus Type 10 = details: strain 204CV14; about 50 mcg per disc, HeLa
Description: as §1, §2

Rhinovirus Type 38 = details: strain CH79; about 50 mcg per disc, HeLa
Description: as §1, §2

Rhinovirus Type 49 = details: strain 8213; about 50 mcg per disc, HeLa
Description: as §1, §2

Rhinovirus Type 14 = details: strain 1059; about 50 mcg per disc, HeLa
Description: as §1, §2

Rhinovirus Type 34 = details: strain 137-3; about 50 mcg per disc, HeLa
Description: as §1, §2

Rhinovirus Type 50 = details: strain A2 No. 58; about 50 mcg per disc, HeLa
Description: as §1, §2

Rhinovirus Type 13 = details: strain 353; about 50 mcg per disc, HeLa
Description: as §1, §2

Rhinovirus Type 41 = details: strain 56110; about 50 mcg per disc, HeLa
Description: as §1, §2

Rhinovirus Type 53 = details: strain FO13928; about 50 mcg per disc, HeLa
Description: as §1, §2

Rhinovirus Type 12 = details: strain 181CV16; about 50 mcg per disc, HeLa
Description: as §1, §2

Rhinovirus Type 2 = details: strain HGP; about 50 mcg per disc, HeLa
Description: as §1, §2

Rhinovirus Type 28 = details: strain 6101CV29; about 50 mcg per disc, HeLa
Description: as §1, §2

Rhinovirus Type 29 = details: strain 179E; about 50 mcg per disc, HeLa
Description: as §1, §2

Rhinovirus Type 30 = details: strain 106F; about 50 mcg per disc, HeLa
Description: as §1, §2

Rhinovirus Type 46 = details: strain Baylor 2; about 50 mcg per disc, HeLa
Description: as §1, §2

Rhinovirus Type 15 = details: strain 1734; about 50 mcg per disc, HeLa
Description: as §1, §2

Rhinovirus Type 1B = details: strain B632; about 50 mcg per disc, HeLa, 33° C., 4 to 5 days
Description: as §1, §2

Rhinovirus Type 16 = details: strain 11757; about 50 mcg per disc, HeLa
Description: as §1, §2

Rhinovirus Type 5 = details: strain Norman; about 50 mcg per disc, HeLa
Description: as §1, §2

Rhinovirus Type 4 = details: strain 16/60; about 50 mcg per disc, HeLa
Description: as §1, §2

Rhinovirus Type 47 = details: strain 1979MCV46; about 50 mcg per disc, HeLa
Description: as §1, §2

Rhinovirus Type 9 = details: strain 211CV13; about 50 mcg per disc, HeLa
Description: as §1, §2

Rhinovirus Type 51 = details: strain 605CV45; about 50 mcg per disc, HeLa
Description: as §1, §2

Rhinovirus Type 26 = details: strain 5660CV27; about 50 mcg per disc, HeLa
Description: as §1, §2

Rhinovirus Type 36 = details: strain 342H; about 50 mcg per disc, HeLa
Description: as §1, §2

Rhinovirus Type 23 = details: strain 5124CV24; about 50 mcg per disc, HeLa
Description: as §1, §2

Rhinovirus Type 31 = details: strain 140F; about 50 mcg per disc, HeLa
Description: as §1, §2

Rhinovirus Type 11 = details: strain 1CV15; about 50 mcg per disc, HeLa
Description: as §1, §2

Rhinovirus Type 22 = details: strain 127CV22; about 50 mcg per disc, HeLa
Description: as §1, §2

Measured: inhibition of rhinovirus serotype (zone of 10 mm or more)

N=C(Nc1ccccc1)Nc1nc(-c2ccccc2)cs1 [1-(4-phenyl-2-thiazolyl)-3-phenylguanidine]
inhibited: Rhinovirus Type 25 | Rhinovirus Type 21 | Rhinovirus Type 52 | Rhinovirus Type 19 | Rhinovirus Type 10 | Rhinovirus Type 38 | Rhinovirus Type 49 | Rhinovirus Type 14 | Rhinovirus Type 34 | Rhinovirus Type 50 | Rhinovirus Type 13 | Rhinovirus Type 41 | Rhinovirus Type 53 | Rhinovirus Type 12 | Rhinovirus Type 2 | Rhinovirus Type 28 | Rhinovirus Type 29 | Rhinovirus Type 30 | Rhinovirus Type 46 | Rhinovirus Type 15 | Rhinovirus Type 1B | Rhinovirus Type 16 | Rhinovirus Type 5 | Rhinovirus Type 4 | Rhinovirus Type 47 | Rhinovirus Type 9 | Rhinovirus Type 51 | Rhinovirus Type 26 | Rhinovirus Type 36 | Rhinovirus Type 23 | Rhinovirus Type 31 | Rhinovirus Type 11 | Rhinovirus Type 22

From patent US4089965A, “Thiazolylphenylguanidines as antirhinovirus agents” (American Cyanamid Company, priority 1977, dated 1978)
